Laboratory results from patent US20240245783A1, “METALLO-BETA-LACTAMASE INHIBITOR” (priority 2021, published 2024).

Key:
[1] = tested on: multidrug-resistant Pseudomonas aeruginosa; assay: Growth suppression of multidrug-resistant Pseudomonas aeruginosa clinical isolates (Test Example 7); assay type: cell-based; conditions: MEPM 2 μg/ml alone, compound 8 20 μM (15.5 μg/ml) alone, Combination = both, 3 wells
Protocol: The effect of NODA-GA-conjugated doripenem (compound 8) on the susceptibility of a Pseudomonas aeruginosa clinical isolate to a carbapenem antibacterial agent was evaluated by the following method. The Pseudomonas aeruginosa clinical isolate was cultured overnight with shaking in LB medium. The bacterial solution was diluted to 1/1000 with LB medium, used as a test bacterial solution, and then seeded in a 96-well plate. Meropenem (Wako Pure Chemical Industries, Ltd.) was added to this bacterial solution in such a manner that the concentration was 2 μg/ml. The effect of NODA-GA-doripenem alone was also examined. The bacteria were cultured in an incubator at 37° C. for one day, and the growth at that time was measured by turbidity (655 nm).
MEPM in Table 1 is meropenem (2 μg/ml) administered alone; NODA-GA-doripenem is compound 8 (20 μM; 15.5 μg/ml) administered alone; Combination means a combined use of meropenem (2 μg/ml) and compound 8 (20 μM; 15.5 μg/ml).

[2] = tested on: Multidrug-resistant Pseudomonas aeruginosa strain MR4; assay: Growth inhibition of Pseudomonas aeruginosa strain MR4 (Test Example 8); assay type: cell-based; conditions: after 24 hours, compared with doripenem
Protocol: Multidrug-resistant Pseudomonas aeruginosa strain MR4 was cultured with doripenem or compound 8, and the bacterial load was assessed by turbidity after 24 hours. FIG. 18 depicts the results.

C[C@@H](O)[C@H]1C(=O)N2C(C(=O)O)=C(S[C@@H]3CN[C@H](CNS(=O)(=O)NC(=O)CCC(C(=O)O)N4CCN(CC(=O)O)CCN(CC(=O)O)CC4)C3)[C@H](C)[C@H]12 (stereo partly drawn) [compound 8, NODA-GA-conjugated doripenem]
suppression of bacterial growth ([1]; strain 808#1): X (x indicates that the number of wells in which suppression of bacterial growth was confirmed was 1 or less)
suppression of bacterial growth ([1]; strain 808#2): X (x indicates that the number of wells in which suppression of bacterial growth was confirmed was 1 or less)
suppression of bacterial growth ([1]; strain MR1): ◯ (◯ indicates that bacterial growth was suppressed in all 3 wells)
suppression of bacterial growth ([1]; strain MR2): ◯ (◯ indicates that bacterial growth was suppressed in all 3 wells)
suppression of bacterial growth ([1]; strain MR3): Δ (Δ indicates that bacterial growth was suppressed in 2 wells out of 3 wells)
suppression of bacterial growth ([1]; strain MR4): Δ (Δ indicates that bacterial growth was suppressed in 2 wells out of 3 wells)
suppression of bacterial growth ([1]; strain MR5): ◯ (◯ indicates that bacterial growth was suppressed in all 3 wells)
suppression of bacterial growth ([1]; strain MR6): Δ (Δ indicates that bacterial growth was suppressed in 2 wells out of 3 wells)
suppression of bacterial growth ([1]; strain MR7): ◯ (◯ indicates that bacterial growth was suppressed in all 3 wells)
suppression of bacterial growth ([1]; strain MR8): X (x indicates that the number of wells in which suppression of bacterial growth was confirmed was 1 or less)
suppression of bacterial growth ([1]; strain MR9): ◯ (◯ indicates that bacterial growth was suppressed in all 3 wells)
suppression of bacterial growth ([1]; strain MR10): Δ (Δ indicates that bacterial growth was suppressed in 2 wells out of 3 wells)
suppression of bacterial growth ([1]; strain MR11): X (x indicates that the number of wells in which suppression of bacterial growth was confirmed was 1 or less)
suppression of bacterial growth ([1]; strain MR12): X (x indicates that the number of wells in which suppression of bacterial growth was confirmed was 1 or less)
suppression of bacterial growth ([1]; strain MR13): X (x indicates that the number of wells in which suppression of bacterial growth was confirmed was 1 or less)
suppression of bacterial growth ([1]; strain MR14): Δ (Δ indicates that bacterial growth was suppressed in 2 wells out of 3 wells)
suppression of bacterial growth ([1]; strain MR15): ◯ (◯ indicates that bacterial growth was suppressed in all 3 wells)
suppression of bacterial growth ([1]; strain MR16): X (x indicates that the number of wells in which suppression of bacterial growth was confirmed was 1 or less)
suppression of bacterial growth ([1]; strain NM1): Δ (Δ indicates that bacterial growth was suppressed in 2 wells out of 3 wells)
suppression of bacterial growth ([1]; strain NM2): Δ (Δ indicates that bacterial growth was suppressed in 2 wells out of 3 wells)
suppression of bacterial growth ([1]; strain NM3): ◯ (◯ indicates that bacterial growth was suppressed in all 3 wells)
suppression of bacterial growth ([1]; strain NM4): ◯ (◯ indicates that bacterial growth was suppressed in all 3 wells)
suppression of bacterial growth ([1]; strain NM5): X (x indicates that the number of wells in which suppression of bacterial growth was confirmed was 1 or less)
anti-Pseudomonas aeruginosa effect (bacterial load by turbidity) [2]: significantly improved compared to that of doripenem
